From US9932381B2, “Exendin-4 derivatives as selective glucagon receptor agonists” (priority 2014, dated 2018)
Non-standard residues stand in square brackets, D forms with d. Residues, ends and D or L forms follow the SMILES beside them. Ala(4-thiazolyl) = N[C@@H](Cc1cscn1)C(=O)O; Nle = CCCC[C@H](N)C(=O)O

Experiments:
[1] = Solubility testing of exendin-4 derivatives (HPLC-UV of supernatant); type: physicochemical; conditions: pH 7.4
Protocol: Prior to the testing of solubility and stability of a peptide batch, its content was determined. Therefore, two parameters were investigated, its purity (HPLC-UV) and the amount of salt load of the batch (ion chromatography).
HPLC-UV was performed after 2 h of gentle agitation from the supernatant, which was obtained by 20 min of centrifugation at 4000 rpm.

[2] = biological target: T1, human GLP-1 receptor (hGLP-1 R) (Homo sapiens, UniProt P43220); assay: cAMP response (HTRF) of HEK-293 cells stably expressing human GLP-1 receptor; type: cell-based
T1 construct: expressed in transfected cells; host or cells: HEK-293
Protocol: cAMP content of cells was determined using a kit from Cisbio Corp. (cat. no. 62AM4PEC) based on HTRF (Homogenous Time Resolved Fluorescence). For preparation, cells were split into T175 culture flasks and grown overnight to near confluency in medium (DMEM/10% FBS). Medium was then removed and cells washed with PBS lacking calcium and magnesium, followed by proteinase treatment with accutase (Sigma-Aldrich cat. no. A6964). Detached cells were washed and resuspended in assay buffer (1×HBSS; 20 mM HEPES, 0.1% BSA, 2 mM IBMX) and cellular density determined. They were then diluted to 400000 cells/ml and 25 μl-aliquots dispensed into the wells of 96-well plates. For measurement, 25 μl of test compound in assay buffer was added to the wells, followed by incubation for 30 minutes at room temperature. After addition of HTRF reagents diluted in lysis buffer (kit components), the plates were incubated for 1 hr, followed by measurement of the fluorescence ratio at 665/620 nm. In vitro potency of agonists was quantified by determining the concentrations that caused 50% activation of maximal response (EC50).

[3] = biological target: T2, human glucagon receptor (hGLUC R) (Homo sapiens, UniProt P47871); assay: cAMP response (HTRF) of HEK-293 cells stably expressing human glucagon receptor; type: cell-based; conditions: Table 4; read-out: EC50 hGLUC R
T2 construct: expressed in transfected cells; host or cells: HEK-293
In short: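 Stably transfected HEK-293 cells, accutase-harvested; assay buffer 1×HBSS/20 mM HEPES/0.1% BSA/2 mM IBMX; 400000 cells/ml; compound 30 min, RT; cAMP by HTRF kit.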

hepatic glycogenolysis = assay: Blood glucose profile in anesthetized rats; type: in vivo, male Wistar rats; conditions: for effect on blood glucose: 10 to 30 μg/kg s.c.
Protocol: The method aimed to study a test compound on the process of hepatic glycogenolysis. The rats had free access to food until the start of the experiment. […] The effect of GCG-mimetic on hepatic glycogenolysis and the subsequent hyperglycemic peak in the blood was compared to the effect obtained with a subcutaneous bolus injection of GCG at a dose of 30 μg/kg.
Rats were anaesthetized with an intraperitoneal injection of pentobarbital sodium (60 mg/kg) and ketamine (10 mg/kg) and tracheotomized. Anesthesia was maintained for up to 5 hours by subcutaneous infusion of pentobarbital sodium (adjusted to the anesthetic depth of the individual animal; about 24 mg/kg/h). Body temperature was monitored with a rectal probe thermometer, and temperature was maintained at 37° C. by means of a heated surgical table. Blood samples for glucose analysis (10 μl) were obtained from the tip of the tail every 15 minutes. The rats were allowed to stabilize their blood glucose levels after surgery for up to 2 hours. Then, GCG as reference compound, or the test compound were administered subcutaneously. For GCG a dose of 30 μg/kg was used to induce hepatic glycogenolysis.

blood glucose = assay: Blood glucose profile in normoglycemic Beagle dogs; type: in vivo, male normoglycemic Beagle dogs; conditions: for effect on blood glucose relative to human glucagon: s.c. injection; for induction of a blood glucose response, SEQ. ID 5 vs. SEQ. ID 6: normoglycemic dogs
Protocol: Male normoglycemic Beagle dogs were fasted overnight before and during the entire experiment. The animals were randomized to groups of n=6 per group. […] The injection solutions were prepared freshly prior to the experiment. The test compound was administered as a single injection via three different routes (s.c., i.m. and i.v.) at doses of 1-100 μg/kg. […] Blood glucose was determined enzymatically (hexokinase method) from whole blood, insulin was analyzed from K-EDTA plasma with a dog-specific ELISA assay.

T1 sequence (P43220 24-463): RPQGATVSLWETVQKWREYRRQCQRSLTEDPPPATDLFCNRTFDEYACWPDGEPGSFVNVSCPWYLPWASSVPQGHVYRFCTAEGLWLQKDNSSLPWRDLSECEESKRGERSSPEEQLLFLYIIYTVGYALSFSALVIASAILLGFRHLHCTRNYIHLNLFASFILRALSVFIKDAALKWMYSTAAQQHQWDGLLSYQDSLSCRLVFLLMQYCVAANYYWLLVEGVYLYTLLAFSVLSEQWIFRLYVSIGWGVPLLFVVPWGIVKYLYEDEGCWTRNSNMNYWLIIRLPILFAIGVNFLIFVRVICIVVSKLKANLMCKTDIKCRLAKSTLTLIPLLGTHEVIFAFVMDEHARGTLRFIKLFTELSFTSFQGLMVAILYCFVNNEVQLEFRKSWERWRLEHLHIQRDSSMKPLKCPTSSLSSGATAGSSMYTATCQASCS
T2 sequence (P47871 26-477): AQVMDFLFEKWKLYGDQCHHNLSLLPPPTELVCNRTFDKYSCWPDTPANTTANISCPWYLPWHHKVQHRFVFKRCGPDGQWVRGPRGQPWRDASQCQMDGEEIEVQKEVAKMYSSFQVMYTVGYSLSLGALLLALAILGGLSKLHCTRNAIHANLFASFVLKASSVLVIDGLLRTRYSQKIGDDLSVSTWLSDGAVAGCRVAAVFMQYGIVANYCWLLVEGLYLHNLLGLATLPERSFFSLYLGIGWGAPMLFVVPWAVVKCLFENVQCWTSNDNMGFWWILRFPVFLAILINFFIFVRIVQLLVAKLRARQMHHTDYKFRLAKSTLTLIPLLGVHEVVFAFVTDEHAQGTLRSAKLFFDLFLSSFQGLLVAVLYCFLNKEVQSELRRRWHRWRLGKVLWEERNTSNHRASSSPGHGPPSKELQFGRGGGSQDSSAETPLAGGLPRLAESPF

SMILES	solubility at 2 h [1] [µg/mL]	EC50 ([2]; Table 4) [nM]	EC50 [3] [nM]	time of blood glucose peak after injection (hepatic glycogenolysis; 10 μg/kg s.c.) [min]	blood glucose excursion compared to 30 μg/kg GCG (hepatic glycogenolysis; 20 μg/kg s.c.)	time of blood glucose peak after injection (hepatic glycogenolysis; 20 μg/kg s.c.) [min]	time of blood glucose peak after injection (hepatic glycogenolysis; 30 μg/kg s.c.) [min]	effect on blood glucose (hepatic glycogenolysis)	peak increase of blood glucose (blood glucose; 10 μg/kg s.c., dog) [mmol/L]	subcutaneous versus intramuscular injection (blood glucose; dog)	glucose excursion at higher doses (blood glucose; doses beyond 10 μg/kg s.c., dog)	effect on blood glucose relative to human glucagon (blood glucose; dog)	duration of the glucose response (blood glucose; s.c., dog, versus human glucagon)	induction of a blood glucose response, SEQ. ID 5 vs. SEQ. ID 6 (blood glucose; s.c.)	activity by route of administration (blood glucose; subcutaneous, intramuscular and intravenous injection, dog)	EC50 ([2]; Table 5, Tza vs. His in position 1) [nM]	blood glucose excursion compared to 30 μg/kg GCG (hepatic glycogenolysis; 10 μg/kg s.c.)
CCCC[C@H](NC(=O)[C@H](CCC(N)=O)NC(=O)[C@H](CCCCN)NC(=O)[C@H](CO)NC(=O)[C@H](CC(C)C)NC(=O)[C@H](CC(=O)O)NC(=O)[C@H](CO)NC(=O)[C@@H](NC(=O)[C@H](Cc1ccccc1)NC(=O)[C@@H](NC(=O)CNC(=O)[C@H](CCC(N)=O)NC(=O)[C@H](CO)NC(=O)[C@@H](N)Cc1cscn1)[C@@H](C)O)[C@@H](C)O)C(=O)N[C@@H](CCC(=O)O)C(=O)N[C@@H](CO)C(=O)N[C@@H](CCCNC(=N)N)C(=O)N[C@@H](CCCNC(=N)N)C(=O)N[C@@H](C)C(=O)N[C@@H](CCC(N)=O)C(=O)N[C@@H](CC(=O)O)C(=O)N[C@@H](Cc1ccccc1)C(=O)N[C@H](C(=O)N[C@@H](CCC(=O)O)C(=O)N[C@@H](Cc1c[nH]c2ccccc12)C(=O)N[C@@H](CC(C)C)C(=O)N[C@@H](CC(C)C)C(=O)N[C@@H](C)C(=O)N[C@H](C(=O)NCC(=O)N1CCC[C@H]1C(=O)N[C@@H](CCC(=O)O)C(=O)N[C@@H](CO)C(=O)NCC(=O)N[C@@H](C)C(=O)N1CCC[C@H]1C(=O)N1CCC[C@H]1C(=O)N1CCC[C@H]1C(=O)N[C@@H](CO)C(=O)O)[C@@H](C)O)[C@@H](C)CC [SEQ ID NO 3, Tza-S-Q-G-T-F-T-S-D-L-S-K-Q-Nle-ESRRAQDFIEWLLATGPESGAPPPS-OH] (H-[Ala(4-thiazolyl)]SQGTFTSDLSKQ[Nle]ESRRAQDFIEWLLATGPESGAPPPS-OH)	> 10000	44.3	0.0018	–	–	–	–	–	–	–	–	–	–	–	–	–	–
CC[C@H](C)[C@H](NC(=O)[C@H](Cc1ccccc1)NC(=O)[C@H](CCC(=O)O)NC(=O)[C@H](CCC(N)=O)NC(=O)[C@H](C)NC(=O)[C@H](CCCNC(=N)N)NC(=O)[C@H](CCCNC(=N)N)NC(=O)[C@H](CO)NC(=O)[C@H](CCC(=O)O)NC(=O)[C@H](CC(C)C)NC(=O)[C@H](CCC(N)=O)NC(=O)[C@H](CCCCN)NC(=O)[C@H](CO)NC(=O)[C@H](Cc1ccc(O)cc1)NC(=O)[C@H](CC(=O)O)NC(=O)[C@H](CO)NC(=O)[C@@H](NC(=O)[C@H](Cc1ccccc1)NC(=O)[C@@H](NC(=O)CNC(=O)[C@H](CCC(N)=O)NC(=O)[C@H](CO)NC(=O)[C@@H](N)Cc1cscn1)[C@@H](C)O)[C@@H](C)O)C(=O)N[C@@H](CCC(=O)O)C(=O)N[C@@H](Cc1c[nH]c2ccccc12)C(=O)N[C@@H](CC(C)C)C(=O)N[C@@H](CC(C)C)C(=O)N[C@@H](C)C(=O)NCC(=O)NCC(=O)N1CCC[C@H]1C(=O)N[C@@H](CCC(=O)O)C(=O)N[C@@H](CO)C(=O)NCC(=O)N[C@@H](C)C(=O)N1CCC[C@H]1C(=O)N1CCC[C@H]1C(=O)N1CCC[C@H]1C(=O)N[C@@H](CO)C(=O)O [SEQ ID NO 5, Tza-SQGTFTSDYSKQLESRRAQEFIEWLLAGGPESGAPPPS-OH]	> 10000	2.19	–	30	nearly comparable shape of blood glucose excursion	45	90	dose-dependent increase of blood glucose	3.5 to 4	no difference in activity and blood glucose time-action profile	did no longer result in higher glucose excursion	mimicked the effect of human glucagon on blood glucose	slightly longer	similarly active	active through all parenteral routes	–	–
CC[C@H](C)[C@H](NC(=O)[C@H](Cc1ccccc1)NC(=O)[C@H](CC(=O)O)NC(=O)[C@H](CCC(N)=O)NC(=O)[C@H](C)NC(=O)[C@H](CCCNC(=N)N)NC(=O)[C@H](CCCNC(=N)N)NC(=O)[C@H](CO)NC(=O)[C@H](CCC(=O)O)NC(=O)[C@H](CC(C)C)NC(=O)[C@H](CCC(N)=O)NC(=O)[C@H](CCCCN)NC(=O)[C@H](CO)NC(=O)[C@H](CC(C)C)NC(=O)[C@H](CC(=O)O)NC(=O)[C@H](CO)NC(=O)[C@@H](NC(=O)[C@H](Cc1ccccc1)NC(=O)[C@@H](NC(=O)CNC(=O)[C@H](CCC(N)=O)NC(=O)[C@H](CO)NC(=O)[C@@H](N)Cc1cscn1)[C@@H](C)O)[C@@H](C)O)C(=O)N[C@@H](CCC(=O)O)C(=O)N[C@@H](Cc1c[nH]c2ccccc12)C(=O)N[C@@H](CC(C)C)C(=O)N[C@@H](CC(C)C)C(=O)N[C@@H](C)C(=O)N[C@H](C(=O)NCC(=O)N1CCC[C@H]1C(=O)N[C@@H](CCC(=O)O)C(=O)N[C@@H](CO)C(=O)NCC(=O)N[C@@H](C)C(=O)N1CCC[C@H]1C(=O)N1CCC[C@H]1C(=O)N1CCC[C@H]1C(=O)N[C@@H](CO)C(=O)O)[C@@H](C)O [SEQ ID NO 15, Tza-SQGTFTSDLSKQLESRRAQDFIEWLLATGPESGAPPPS-OH] (H-[Ala(4-thiazolyl)]SQGTFTSDLSKQLESRRAQDFIEWLLATGPESGAPPPS-OH)	> 10000	34.5	0.0022	–	–	–	–	–	–	–	–	–	–	–	–	19.7	–
CC[C@H](C)[C@H](NC(=O)[C@H](Cc1ccccc1)NC(=O)[C@H](CCC(=O)O)NC(=O)[C@H](CCC(N)=O)NC(=O)[C@H](C)NC(=O)[C@H](CCCNC(=N)N)NC(=O)[C@H](CCCNC(=N)N)NC(=O)[C@H](CO)NC(=O)[C@H](CCC(=O)O)NC(=O)[C@H](CC(C)C)NC(=O)[C@H](CCC(N)=O)NC(=O)[C@H](CCCCN)NC(=O)[C@H](CO)NC(=O)[C@H](Cc1ccc(O)cc1)NC(=O)[C@H](CC(=O)O)NC(=O)[C@H](CO)NC(=O)[C@@H](NC(=O)[C@H](Cc1ccccc1)NC(=O)[C@@H](NC(=O)CNC(=O)[C@H](CCC(N)=O)NC(=O)[C@H](CO)NC(=O)[C@@H](N)Cc1cscn1)[C@@H](C)O)[C@@H](C)O)C(=O)N[C@@H](CCC(=O)O)C(=O)N[C@@H](Cc1c[nH]c2ccccc12)C(=O)N[C@@H](CC(C)C)C(=O)N[C@@H](CC(C)C)C(=O)N[C@@H](C)C(=O)N[C@H](C(=O)NCC(=O)N1CCC[C@H]1C(=O)N[C@@H](CCC(=O)O)C(=O)N[C@@H](CO)C(=O)NCC(=O)N[C@@H](C)C(=O)N1CCC[C@H]1C(=O)N1CCC[C@H]1C(=O)N1CCC[C@H]1C(=O)N[C@@H](CO)C(=O)O)[C@@H](C)O [SEQ ID NO 6, Tza-SQGTFTSDYSKQLESRRAQEFIEWLLATGPESGAPPPS-OH]	> 10000	9.3	–	30	–	–	60	dose-dependent increase of blood glucose	–	–	–	mimicked the effect of human glucagon on blood glucose	–	similarly active	–	–	more powerful blood glucose excursion
